The text below walks through data of patent US20120238615A1, “Alpha adrenergic receptor modulators” (Allergan, Inc., priority 2009, published 2012).

The target in the test is T1, alpha-2C (Homo sapiens, UniProt P18825).
T1 construct: expressed in transfected cells
T1 sequence (P18825 1-462): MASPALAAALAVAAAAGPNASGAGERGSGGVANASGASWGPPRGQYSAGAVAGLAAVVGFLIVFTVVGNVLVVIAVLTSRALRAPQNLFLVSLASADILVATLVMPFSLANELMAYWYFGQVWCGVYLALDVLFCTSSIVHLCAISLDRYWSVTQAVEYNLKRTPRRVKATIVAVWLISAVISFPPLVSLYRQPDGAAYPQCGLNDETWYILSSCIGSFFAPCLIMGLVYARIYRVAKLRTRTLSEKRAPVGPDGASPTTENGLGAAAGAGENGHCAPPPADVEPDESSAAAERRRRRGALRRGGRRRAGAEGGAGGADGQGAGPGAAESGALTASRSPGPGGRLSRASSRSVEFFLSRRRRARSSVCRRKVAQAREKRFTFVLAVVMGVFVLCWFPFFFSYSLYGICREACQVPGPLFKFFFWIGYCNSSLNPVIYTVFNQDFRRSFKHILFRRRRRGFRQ
Put plainly: FLIPR calcium assay for alpha adrenergic activity. The class given is cell-based. Particulars: cells expressing alpha-2C and G-protein (Gqi5 or G16); for EC50: fluo-4 calcium signal, agonist, read-out: Potency (nM) Alpha 2C (EC50); for efficacy Alpha 2C (relative efficacy compared to a standard full agonist, in parentheses): relative to norepinephrine. The text has this:
Compounds described herein were synthesized and tested for alpha adrenergic activity using a Fluorometric Imaging plate Reader (FLIPR) assay (Princen et al., 2003, Cytometry Part A. 51, pp. 35-45). Cells expressing the receptor of interest (alpha-2C) and a G-protein (Gqi5 or G16) are loaded with fluo-4, a calcium sensitive dye. After removal of excess dye by washing, the cells are placed in the FLIPR TETRA instrument. Baseline fluorescence readings are taken prior to addition of the compounds. Agonists will trigger the receptor to interact with the G-protein, leading to an increase in intracellular calcium. The increase in intracellular calcium causes an increase in the fluorescence of the cells, due to the presence of fluo-4. This fluorescence increase is recorded by the FLIPR TETRA. After the calcium transient signal has decreased towards baseline, the standard agonist norepinephrine is added. If the compound is an antagonist, an initial calcium signal will not be generated and the antagonist will prevent the generation of a calcium signal from norepinephrine. The level of fluorescence is compared to that of norepinephrine, and the EC50 of the compound determined by curve fitting. […] The compounds described herein activate alpha adrenergic receptors.

What is called EC50 is the concentration giving half of the maximal effect. With `Cc1cccc(NC2=NCCC2)c1Br` [Compound 1, N-(2-bromo-3-methyl-phenyl)-3,4-dihydro-2H-pyrrol-5-amine], the EC50 came to 663 nM and the “efficacy Alpha 2C (relative efficacy compared to a standard full agonist, in parentheses)” value (shortened to “relative efficacy”) was “(1)”.
The corresponding values for `COc1c(Cl)cccc1NC1=NCCC1` [Compound 2, N-(3-chloro-2-methoxyphenyl)-3,4-dihydro-2H-pyrrol-5-amine] are 975 nM and “(1)”.
Take `Cc1c(Cl)cccc1NC1=NCCC1` [Compound 3, N-(3-chloro-2-methylphenyl)-3,4-dihydro-2H-pyrrol-5-amine]: the EC50 was found to be 71 nM and the “relative efficacy” value is “(1)”.
As for `Cc1cccc(NC2=NCCC2)c1Cl` [Compound 4, N-(2-chloro-3-methylphenyl)-3,4-dihydro-2H-pyrrol-5-amine], the EC50 is 635 nM and the “relative efficacy” value is on record as “(1)”.
For `COc1c(C)cccc1NC1=NCCC1` [Compound 5, N-(2-methoxy-3-methylphenyl)-3,4-dihydro-2H-pyrrol-5-amine] the same measures were 243 nM and “(1)”.
For the molecule `Fc1c(Cl)cccc1NC1=NCCC1` [Compound 6, N-(3-chloro-2-fluorophenyl)-3,4-dihydro-2H-pyrrol-5-amine], the EC50 is 26 nM and the “relative efficacy” value is given as “(1)”.
For `COc1cccc(NC2=NCCC2)c1Br` [Compound 7, N-(2-bromo-3-methoxyphenyl)-3,4-dihydro-2H-pyrrol-5-amine] the same measures were 32 nM and “(1)”.
For `COc1cccc(NC2=NCCC2)c1C` [Compound 8, N-(3-methoxy-2-methylphenyl)-3,4-dihydro-2H-pyrrol-5-amine] the same measures were 186 nM and “(1)”.
As to `Cc1c(F)cccc1NC1=NCCC1` [Compound 9, N-(3-fluoro-2-methylphenyl)-3,4-dihydro-2H-pyrrol-5-amine], the EC50 was found to be 756 nM and the “relative efficacy” value is “(1)”.
For `Cc1c(Br)cccc1NC1=NCCC1` [Compound 10, N-(3-bromo-2-methylphenyl)-3,4-dihydro-2H-pyrrol-5-amine] the same measures were 288 nM and “(1)”.
Take `Clc1ccccc1NC1=NCCC1` [Compound 11, N-(2-chlorophenyl)-3,4-dihydro-2H-pyrrol-5-amine]: the EC50 amounted to 709 nM and the “relative efficacy” value was “(1)”.
With `Clc1cccc(Cl)c1NC1=NCCC1` [Compound 12, N-(2,6-dichlorophenyl)-3,4-dihydro-2H-pyrrol-5-amine], the EC50 stood at 44 nM and the “relative efficacy” value was “(1)”.
In the case of `Cc1ccccc1NC1=NCCC1` [Compound 13, N-(2-methylphenyl)-3,4-dihydro-2H-pyrrol-5-amine], the EC50 worked out at 743 nM and the “relative efficacy” value is “(1)”.
As for `FC(F)(F)c1ccccc1NC1=NCCC1` [Compound 14, N-[2-(trifluoromethyl)phenyl]-3,4-dihydro-2H-pyrrol-5-amine], the EC50 was determined as 796 nM and the “relative efficacy” value is reported as “(1)”.
The corresponding values for `Cc1cccc(C)c1NC1=NCCC1` [Compound 15, N-(2,6-dimethylphenyl)-3,4-dihydro-2H-pyrrol-5-amine] are 348 nM and “(1)”.
As for `Cc1cccc(NC2=NCCC2)c1C` [Compound 16, N-(2,3-dimethylphenyl)-3,4-dihydro-2H-pyrrol-5-amine], the EC50 came to 118 nM and the “relative efficacy” value is “(1)”.
